# Measured values as given in patent US4897409A, “5-aminoethyloxazolidin-2-one derivatives” (Delalande S.A., priority 1986, dated 1990).
# Key:
# [1] = biological target: T1, MAO-A of the brain of a rat (Rattus norvegicus, UniProt P21396); assay: in vitro inhibition of MAO-A, total rat brain homogenate; format: biochemical; details: preincubation of 60', 1 g of tissue/16 ml phosphate buffer pH 7.4, substrate [14C]5-hydroxytryptamine 480 μM, read-out: IC 50 (A), MAO-A
# T1 construct: total rat brain homogenate, with 1 g of tissue/16 ml of phosphate buffer; from tissue; host or cells: rat brain, total homogenate
# T1 sequence (P21396 1-526): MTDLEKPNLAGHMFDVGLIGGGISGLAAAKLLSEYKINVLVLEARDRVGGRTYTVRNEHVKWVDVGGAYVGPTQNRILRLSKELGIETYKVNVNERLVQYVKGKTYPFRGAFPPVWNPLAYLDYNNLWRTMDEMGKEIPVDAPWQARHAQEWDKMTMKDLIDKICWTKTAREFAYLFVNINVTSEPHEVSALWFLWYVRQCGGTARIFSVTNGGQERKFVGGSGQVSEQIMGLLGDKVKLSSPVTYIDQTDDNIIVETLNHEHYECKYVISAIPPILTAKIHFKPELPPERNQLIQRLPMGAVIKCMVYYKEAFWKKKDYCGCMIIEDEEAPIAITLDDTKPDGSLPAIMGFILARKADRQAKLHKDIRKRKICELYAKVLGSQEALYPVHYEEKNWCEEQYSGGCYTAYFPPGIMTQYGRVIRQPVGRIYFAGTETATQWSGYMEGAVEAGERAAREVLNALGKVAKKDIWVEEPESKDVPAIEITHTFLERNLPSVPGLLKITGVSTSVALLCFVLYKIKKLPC
# Method: (§1) This activity has been given prominence by the implementation of the protocol described by P. DOSTERT et al. in J. Pharm. Parmacol., 1983, 35, 161-165; this protocol is based on enzymatic tests carried out with or without preincubation in particular for 60 minutes and it allows measurement in vitro of the inhibiting effect with regard to the MAO-A and the MAO-B of the brain of a rat.
# (§2) In Table 4 below are shown the inhibiting concentrations 50 (IC 50) for the A and B forms of MAO, obtained for a number of compounds (I) according to the invention following the above protocol applied to a total rat brain homogenate, with 1 g of tissue/16 ml of phosphate buffer of pH 7.4.
# (§3) Substrate concentrations: [^14 C]5hydroxytryptamine = 480 μM,
# (§4) [^14 C]phenylethylamine = 12 μM for the study of the inhibition o
# [2] = biological target: T2, MAO-B of the brain of a rat (Rattus norvegicus, UniProt P19643); assay: in vitro inhibition of MAO-B, total rat brain homogenate; format: biochemical; details: preincubation of 60'; for ratio IC 50 (A) / IC 50 (B) (head is drawing 22): selectivity MAO-B over MAO-A, 60 min; for IC50: total rat brain homogenate, 1 g of tissue/16 ml phosphate buffer pH 7.4, substrate [14C]phenylethylamine 12 μM, read-out: IC 50 (B), MAO-B
# T2 construct: total rat brain homogenate, with 1 g of tissue/16 ml of phosphate buffer; from tissue; host or cells: rat brain, total homogenate
# T2 sequence (P19643 1-520): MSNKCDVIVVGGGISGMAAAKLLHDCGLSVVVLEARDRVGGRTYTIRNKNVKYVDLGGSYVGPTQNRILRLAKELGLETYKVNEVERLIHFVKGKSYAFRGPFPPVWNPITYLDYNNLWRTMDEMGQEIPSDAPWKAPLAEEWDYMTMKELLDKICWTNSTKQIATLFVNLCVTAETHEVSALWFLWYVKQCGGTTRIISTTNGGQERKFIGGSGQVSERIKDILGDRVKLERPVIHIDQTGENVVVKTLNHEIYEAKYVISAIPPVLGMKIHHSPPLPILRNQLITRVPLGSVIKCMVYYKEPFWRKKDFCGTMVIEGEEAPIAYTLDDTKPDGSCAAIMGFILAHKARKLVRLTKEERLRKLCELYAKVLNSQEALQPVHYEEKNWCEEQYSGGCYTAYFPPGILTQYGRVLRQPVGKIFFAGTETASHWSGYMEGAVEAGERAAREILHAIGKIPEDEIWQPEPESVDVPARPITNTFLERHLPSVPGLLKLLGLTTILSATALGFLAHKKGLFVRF
# Method: as §1, §2, §3, §4
SMILES,IC50 [1] [µM],ratio IC 50 (A) / IC 50 (B) (head is drawing 22) [2],IC50 [2] [µM]
C[C@@H]([C@H]1CN(c2ccc(OCc3cccc(Cl)c3)cc2)C(=O)O1)N(C)C (relative stereo) [compound 340742],> 1000,> 6250,0.16
"C[C@@H]([C@H]1CN(c2ccc(OCc3cccc(Cl)c3)cc2)C(=O)O1)N(C)C [compound 200562, erythro stereoisomer (-) (R, S) of 3-[4-(3-chlorobenzyloxy)phenyl] 5-(1-dimethylaminoethyl) oxazolidin-2-one]",> 100,> 1887,0.053
C[C@@H](N)[C@H]1CN(c2ccc(OCc3cccc(Cl)c3)cc2)C(=O)O1 [compound 340321],> 100,> 19,5.34
CN[C@@H](C)[C@@H]1CN(c2ccc(OCc3cccc(Cl)c3)cc2)C(=O)O1 [compound 340333],> 100,> 78,1.28
C[C@H](N)[C@@H]1CN(c2ccc(OCc3cccc(Cl)c3)cc2)C(=O)O1 [compound 340366],> 100,> 61,1.64
COc1cccc(COc2ccc(N3C[C@H]([C@H](C)N(C)C)OC3=O)cc2)c1 [compound 340744],> 1000,> 4000,0.25
C[C@H]([C@@H]1CN(c2ccc(OCc3cccc(Cl)c3)cc2)C(=O)O1)N(C)C [compound 340746],> 1000,> 625,1.6
COc1cccc(COc2ccc(N3C[C@@H]([C@@H](C)N(C)C)OC3=O)cc2)c1 [compound 340747],> 1000,> 67,15

# Results, then the compound that gave them:
IC50 [1] [µM],ratio IC 50 (A) / IC 50 (B) (head is drawing 22) [2],IC50 [2] [µM],SMILES
1000,2500,0.4,COc1cccc(COc2ccc(N3C[C@H]([C@H](C)N(C)C)OC3=O)cc2)c1 (relative stereo) [compound 340743]
15,300,0.05,CN[C@@H](C)[C@H]1CN(c2ccc(OCc3cccc(Cl)c3)cc2)C(=O)O1 (relative stereo) [compound 340745]
300,> 15,20,C[C@H]([C@H]1CN(c2ccc(OCc3cccc(Cl)c3)cc2)C(=O)O1)N(C)C (relative stereo) [compound 340748]
> 30,> 10,300,COc1cccc(COc2ccc(N3C[C@H]([C@@H](C)N(C)C)OC3=O)cc2)c1 (relative stereo) [compound 340749]
210,553,0.38,C[C@H](N)[C@H]1CN(c2ccc(OCc3cccc(Cl)c3)cc2)C(=O)O1 (relative stereo) [compound 340750]
18.3,16,1.16,CN[C@H](C)[C@@H]1CN(c2ccc(OCc3cccc(Cl)c3)cc2)C(=O)O1 [compound 340179]
7.43,95,0.078,CN[C@@H](C)[C@H]1CN(c2ccc(OCc3cccc(Cl)c3)cc2)C(=O)O1 [compound 340271]
148,110,1.35,CN[C@H](C)[C@H]1CN(c2ccc(OCc3cccc(Cl)c3)cc2)C(=O)O1 [compound 340276]
